US20030215888A1, “Androgen receptor overexpressing skeletal myoblasts” (Pfizer Inc., priority 2002, published 2003)

Experiments:
C2hAR57 cells = assay: [3H]-thymidine uptake assay, C2hAR57 cells; format: cell-based, mouse; details: for effect on [3H]-thymidine uptake: 48 hours exposure
Experimental: After 48 hours exposure to the test agents, medium containing 0.1 μCi [^3H]-thymidine (82 Ci/mmol, Amersham, Buckinghamshire, UK) per well was added and incubation was continued for two additional hours at 37° C. The assay was terminated by aspirating the culture medium and washing with ice-cold phosphate buffered saline followed by 5% trichloroacetic acid. The cells where then lysed by applying 0.3 N NaOH (75 μl per well) followed by 0.3 N HCl (75 μl per well) to neutralize the NaOH. The radioactivity in 50-μl aliquots was determined by liquid scintillation counting in 96-well plates (Packard Instrument Corporation) using a TopCount™ Scintillation Counter (Packard Instrument Corporation).

androgen receptor = target: T1, androgen receptor (Homo sapiens, UniProt P10275); details: read-out: IC50 (known affinities for the androgen receptor); printed beside rank order potency on inhibition of [3H]-thymidine uptake; cited from earlier work
T1 sequence (P10275 1-920): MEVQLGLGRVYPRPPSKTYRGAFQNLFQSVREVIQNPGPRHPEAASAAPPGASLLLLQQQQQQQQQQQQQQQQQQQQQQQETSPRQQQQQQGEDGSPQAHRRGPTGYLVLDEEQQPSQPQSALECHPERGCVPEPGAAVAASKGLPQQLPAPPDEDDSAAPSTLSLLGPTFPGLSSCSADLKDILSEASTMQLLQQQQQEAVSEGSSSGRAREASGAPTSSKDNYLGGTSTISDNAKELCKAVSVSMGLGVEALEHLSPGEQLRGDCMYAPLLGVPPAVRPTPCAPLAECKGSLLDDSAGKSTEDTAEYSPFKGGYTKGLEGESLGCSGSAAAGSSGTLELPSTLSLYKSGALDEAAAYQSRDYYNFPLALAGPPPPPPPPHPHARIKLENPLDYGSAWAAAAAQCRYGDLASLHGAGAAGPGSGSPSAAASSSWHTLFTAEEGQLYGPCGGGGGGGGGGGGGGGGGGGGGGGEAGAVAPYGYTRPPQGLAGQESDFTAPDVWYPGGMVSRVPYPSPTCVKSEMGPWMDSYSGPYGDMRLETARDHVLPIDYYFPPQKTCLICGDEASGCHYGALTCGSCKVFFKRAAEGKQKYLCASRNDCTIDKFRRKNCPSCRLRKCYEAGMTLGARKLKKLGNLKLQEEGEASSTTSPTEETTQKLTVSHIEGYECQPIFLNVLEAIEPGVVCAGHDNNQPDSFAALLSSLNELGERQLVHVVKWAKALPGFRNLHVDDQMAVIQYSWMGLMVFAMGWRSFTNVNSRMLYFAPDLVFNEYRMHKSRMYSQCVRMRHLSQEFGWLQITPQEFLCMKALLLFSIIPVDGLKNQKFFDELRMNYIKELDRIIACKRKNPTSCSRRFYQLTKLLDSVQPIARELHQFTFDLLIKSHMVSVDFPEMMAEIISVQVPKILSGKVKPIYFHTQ

SMILES: CC(C)(O)C(=O)Nc1ccc([N+](=O)[O-])c(C(F)(F)F)c1 [2-hydroxyflutamide]
- reversal of the inhibition of [3H]-thymidine uptake by 0.1 nM DHT (C2hAR57 cells; concomitant addition with 0.1 nM DHT): completely reversed

SMILES: C[C@]12COC(=O)C[C@@H]1CC[C@@H]1[C@@H]2CC[C@@]2(C)[C@H]1CC[C@]2(C)O [oxandrolone]
- IC50 (androgen receptor): 28.4 nM
- effect on [3H]-thymidine uptake (C2hAR57 cells): dose-dependent inhibitory effects

SMILES: C[C@]12Cc3c[nH]nc3C[C@@H]1CC[C@@H]1[C@@H]2CC[C@@]2(C)[C@H]1CC[C@]2(C)O [stanozolol]
- effect on [3H]-thymidine uptake (C2hAR57 cells): dose-dependent inhibitory effects

SMILES: C[C@]12CC[C@H]3[C@@H](CCC4=CC(=O)CC[C@@]43C)[C@@H]1CC[C@@H]2O [testosterone]
- effect on [3H]-thymidine uptake (C2hAR57 cells): dose-dependent inhibitory effects
